Measurements: patent US7749955B2, “Separation of polypeptides comprising a racemized amino acid” (Novo Nordisk A/S, priority 2003, dated 2010)

Assay: isoelectric pH of the peptide (isoelectric precipitation)
Type: physicochemical
Details: pH at which the peptide was precipitated after chromatography
Excerpt: Arg^34GLP-1(7-37) was expressed in yeast (S. cerevisiae) by conventional recombinant technology as described elsewhere (WO 98/08871). Arg^34GLP-1(7-37) in the fermentation broth was then purified by conventional reversed phase chromatography and subsequently precipitated at the isoelectric pH of the peptide, i.e. at pH 5.4. The precipitate was isolated by centrifugation. Following another RP-LC purification step and isoelectric precipitation, the Arg^34GLP-1(7-37) peptide was acylated as decribed in WO 00/55119 to give the GLP-1 derivative Arg^34Lys^26N^ε(γ-Glu(N^α-hexadecanoyl))GLP-1(7-37).
L17K, K30R-GLP2(1-33) was expressed in yeast (S. cerevisiae) by conventional recombinant technology in a similar manner as described in WO 98/08871 for GLP-1 peptides. L17K, K30R-GLP2(1-33) in the fermentation broth was then purified by conventional aniaon exchange and reversed phase chromatography and subsequently precipitated at the isoelectric pH of the peptide, i.e. at pH 4. The precipitate was isolated by centrifugation. D-His-L17K, K30R-GLP2(1-33) was prepared by solid phase synthesis.

Substance	isoelectric pH of the peptide [pH]
Arg^34GLP-1(7-37)	5.4
L17K, K30R-GLP2(1-33) (HADGSFSDEMNTILDNKAARDFINWLIQTRITD; Glucagon-like peptide 2; UniProt P01275 146-178, looked up, variant L17K K30R) [GLP-2 analogue expressed in yeast]	4
